Assays:
S. aureus = test: Zone of inhibition test on TSA plates; assay type: cell-based
Protocol: (§1) A zone of inhibition test is conducted on several materials: zinc oxide and amino acid hydrohalide alone and a mixture formed from zinc oxide and amino acid hydrohalide. The method involves making a lawn of freshly prepared bacterial culture on TSA (trypticase soy agar) plates. Sterile filter paper discs are seeded with 20 μl of test sample (supernatant or mixture). Sample-coated filter paper discs are air dried and applied onto the bacterial lawn on TSA plates. Plates are incubated for 20 hours at 37° C.

C. minutissimum = test: Zone of inhibition test on TSA plates; assay type: cell-based; settings: Table 3, sample type not given
Protocol: as §1
Similar antibacterial efficacy is seen when tetrabasic zinc chloride is used in place of zinc oxide as the source of zinc ions.

S. epider. = test: Zone of inhibition test on TSA plates; assay type: cell-based; settings: 20 h 37° C.
Protocol: as §1

C. xerosis = test: Zone of inhibition test on TSA plates; assay type: cell-based; settings: 20 h 37° C.
Protocol: as §1

[1] = molecular target: Bovine Serum Albumin (BSA) (Bos taurus, UniProt P02769); test: Flocculation of ZLC in the presence of protein (BSA): turbidity and pH; assay type: physicochemical; settings: for observation / pH / Turbidity (NTU): ZLC about 15 mg/ml, 5 hours 37° C.
Protocol: Turbidity and pH of solutions are measured 5 hours after the mixtures were placed in a 37° C. oven, and the results are shown in Table 6.

[2] = Hydrolysis reaction: pH and turbidity of diluted ZLC solutions before and after aging; assay type: physicochemical; settings: for pH after aging / turbidity after aging (NTU): 37° C. over 5 hours
Protocol: A 185 mg/ml solution of ZLC is prepared and diluted several-fold and aged in a 37° C. oven over 5 hours for turbidity studies. […] Turbidity of the solutions is measured using a nephelometer, results being given in nephelometric turbidity units (NTU).
The precipitates formed in the 8×, 16× and 32× diluted solutions are collected by centrifugation and identified as crystalline ZnO by PXRD. From the supernatant, a single crystal is grown and shown by X-ray diffraction to be Lysine Monohydrochloride Dihydrate (Lysine.HCl.2H2O).

[3] = Solubilization of zinc: free Zn2+ in supernatant by atomic absorption; assay type: physicochemical; settings: dispersed in water, equilibrated overnight
Source text: Ingredients are dispersed in water, equilibrated overnight, and the supernatant analyzed for free Zn^2+ by atomic absorption.

[4] = sample 1: DI water, 0% BSA, pH 6.4
[5] = sample 3: 1% BSA, pH adjusted to 5.1

Sequence of Bovine Serum Albumin (BSA) (P02769 25-607): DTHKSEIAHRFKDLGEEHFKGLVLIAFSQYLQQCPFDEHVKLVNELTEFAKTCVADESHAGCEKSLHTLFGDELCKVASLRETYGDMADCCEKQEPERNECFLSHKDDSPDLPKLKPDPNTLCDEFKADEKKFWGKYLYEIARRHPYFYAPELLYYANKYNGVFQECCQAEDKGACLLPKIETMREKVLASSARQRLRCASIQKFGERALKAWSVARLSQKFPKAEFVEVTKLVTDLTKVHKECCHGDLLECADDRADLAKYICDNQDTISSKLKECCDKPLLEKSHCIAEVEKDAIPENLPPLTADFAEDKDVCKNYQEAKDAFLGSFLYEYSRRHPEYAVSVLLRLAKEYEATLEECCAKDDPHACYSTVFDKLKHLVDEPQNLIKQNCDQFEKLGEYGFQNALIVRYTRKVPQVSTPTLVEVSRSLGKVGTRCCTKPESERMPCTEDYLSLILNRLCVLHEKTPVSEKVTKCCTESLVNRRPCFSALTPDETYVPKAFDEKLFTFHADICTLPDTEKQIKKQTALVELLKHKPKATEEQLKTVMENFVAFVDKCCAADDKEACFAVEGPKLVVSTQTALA

SMILES: N=C(N)NCCC[C@H](N)C(=O)O [Arginine 4%, arginine]
- Zone of Inhibition (S. aureus; Table 3, sample type not given): 0 mm
- Zone of Inhibition (C. minutissimum): 0 mm

SMILES: NCCCC[C@H](N)C(=O)O [Lysine 4%, lysine]
- Zone of Inhibition (S. aureus; Table 3, sample type not given): 0 mm
- Zone of Inhibition (C. minutissimum): 0 mm

SMILES: Cl.NCCCC[C@H](N)C(=O)O [Lysine-HCl 23.2%, lysine hydrochloride]
- Zone of Inhibition (S. epider.; Dry Sample, As is): 0 mm
- Zone of Inhibition (S. epider.; Wet Sample, As is): 0 mm
- Zone of Inhibition (C. xerosis; Dry Sample, As is): 0 mm
- Zone of Inhibition (C. xerosis; Wet Sample, As is): 0 mm
- Zone of Inhibition (S. aureus; Dry Sample, As is, 20 h 37° C.): 0 mm
- Zone of Inhibition (S. aureus; Table 3, sample type not given): 0 mm
- Zone of Inhibition (S. aureus; Wet Sample, As is, 20 h 37° C.): 0 mm
- Zone of Inhibition (C. minutissimum): 0 mm

SMILES: [Cl-].[Cl-].[OH-].[OH-].[OH-].[OH-].[OH-].[OH-].[OH-].[OH-].[Zn+2].[Zn+2].[Zn+2].[Zn+2].[Zn+2] [TBZC (4%), Tetrabasic zinc chloride]
- Zone of Inhibition (S. aureus; Table 3, Mixture): 6 mm
- Zone of Inhibition (S. aureus; Table 3, Supernat): 6 mm

SMILES: NCCCCC(N)C(=O)O.NCCCCC(N)C(=O)O.O.O.[Cl-].[Cl-].[Zn+2] (centres unmarked) [ZLC, [Zn(Lysine)2Cl]^+Cl^−.2H2O]
- flocculation of proteins ([1]; proteins such as BSA): ability to flocculate proteins
- observation [1, 4]: slightly cloudy
- pH [1, 4]: 8
- Turbidity (NTU) ([1]; sample 2: 1% BSA, pH 7.2): >1000 NTU
- observation ([1]; sample 2: 1% BSA, pH 7.2): precipitate
- pH ([1]; sample 2: 1% BSA, pH 7.2): 8.2
- Turbidity (NTU) [1, 5]: >1000 NTU
- observation [1, 5]: precipitate
- pH [1, 5]: 8
- initial pH ([2]; 5.78 mg/ml): 8
- pH after aging ([2]; 5.78 mg/ml): 8
- turbidity after aging (NTU) ([2]; 5.78 mg/ml): >1000 NTU
- initial pH ([2]; 11.56 mg/ml): 7.8
- pH after aging ([2]; 11.56 mg/ml): 7.8
- turbidity after aging (NTU) ([2]; 11.56 mg/ml): >1000 NTU
- initial pH ([2]; 23.125 mg/ml): 7.7
- initial turbidity (NTU) ([2]; 23.125 mg/ml): 0.7 NTU
- pH after aging ([2]; 23.125 mg/ml): 7.7
- initial pH ([2]; 46.25 mg/ml): 7.4
- initial turbidity (NTU) ([2]; 46.25 mg/ml): 1.5 NTU
- pH after aging ([2]; 46.25 mg/ml): 7.4
- turbidity after aging (NTU) ([2]; 46.25 mg/ml): 2.8 NTU
- initial pH ([2]; 92.5 mg/ml): 7
- initial turbidity (NTU) ([2]; 92.5 mg/ml): 2.8 NTU
- pH after aging ([2]; 92.5 mg/ml): 7
- turbidity after aging (NTU) ([2]; 92.5 mg/ml): 2.6 NTU
- initial pH ([2]; 185 mg/ml): 6.8
- initial turbidity (NTU) ([2]; 185 mg/ml): 4.7 NTU
- pH after aging ([2]; 185 mg/ml): 6.8
- turbidity after aging (NTU) ([2]; 185 mg/ml): 4.1 NTU
- observation as the 185 mg/ml solution is diluted ([2]; diluted several-fold, 37° C.): white precipitate forms
- stability of the complex upon dilution ([2]; precipitates of 8×, 16×, 32× dilutions identified as crystalline ZnO by PXRD, Lysine.HCl.2H2O from supernatant): disassociates upon dilution, with consequent precipitation of zinc oxide

SMILES: [O]=[Zn] [ZnO(4%), zinc oxide]
- Zone of Inhibition (S. epider.; Dry Sample, Mixture): 10 mm
- Zone of Inhibition (S. epider.; Dry Sample, Supernatant): 0 mm
- Zone of Inhibition (S. epider.; Wet Sample, Mixture): 12 mm
- Zone of Inhibition (S. epider.; Wet Sample, Supernatant): 0 mm
- Zone of Inhibition (C. xerosis; Dry Sample, Mixture): 0 mm
- Zone of Inhibition (C. xerosis; Dry Sample, Supernatant): 0 mm
- Zone of Inhibition (C. xerosis; Wet Sample, Mixture): 0 mm
- Zone of Inhibition (C. xerosis; Wet Sample, Supernatant): 0 mm
- Zone of Inhibition (S. aureus; Dry Sample, Mixture, 20 h 37° C.): 7 mm
- Zone of Inhibition (S. aureus; Dry Sample, Supernatant, 20 h 37° C.): 0 mm
- Zone of Inhibition (S. aureus; Wet Sample, Mixture, 20 h 37° C.): 7 mm
- Zone of Inhibition (S. aureus; Wet Sample, Supernatant, 20 h 37° C.): 0 mm
- Free Zn [3]: 11 ppm

From US9925130B2, “Composition with zinc amino acid/trimethylglycine halide precursors” (Colgate-Palmolive Company, priority 2012, dated 2018)
